Series [1] in a line: Preliminary tests to estimate supersaturation and undercooling of carbohydrates in water. The format is physicochemical. An excerpt: Therefore, preliminary tests were made in order to estimate supersaturation and overcooling of various carbohydrates in water under different conditions.
For series [2] the following is noted: cited from earlier work.
Series [3] is described as follows: Mutarotation: angle of rotation over time after dissolving allulose in water (polarimeter). The format is physicochemical. The following applies: 23° C.; for angle of rotation: desalted water, DS about 26 wt.-%. As to the method:
Crystalline allulose was dissolved in water (DS 26 wt.-%). Quickly afterwards, the sample was placed in a polarimeter and the angle of rotation was read off at regular intervals ([…], 23° C.). From this, the angle of rotation was then plotted over time (see FIG. 1). 74.30 g of water and 26.05 g of crystalline allulose were mixed. The mixture was briefly stirred with a stir bar until the allulose was completely dissolved. Then a sample was placed in the polarimeter and the angle of rotation of the same sample was measured at regular intervals. There were approximately 5 minutes between the addition of the allulose and the first measured value (0 min).
Mutarotation of solid allulose obtained in accordance with the present invention was compared to mutarotation of highly crystalline allulose. For this purpose, solutions at a dry substance content of about DS 26 wt.-% were prepared from powdery compositions each having a particle size within the range of from 100 to 200 μm (sieve fraction).
15.61 g of powdery crystalline allulose (comparative) of grain size 100-200 μm were dissolved at 23° C. in 47.6 g desalted water in a 500 mL beaker. The angle of rotation was measured over time with a polarimeter.
13.00 g of extruded allulose (inventive) of grain size 100-200 μm were dissolved at 23° C. in 37.07 g desalted water in a 500 mL beaker. The angle of rotation was measured over time with a polarimeter.
For the sake of better comparability, the specific angle of rotation [(° *ml)/(dm*g)] was calculated for each measured value. The results are visualized in FIG. 2.

The conditions of series [4]: cited from earlier work. This is another data set of the same source.
The conditions of series [5]: cited from earlier work. The source holds these as a separate data set.
[6] abbreviates: mass fraction 80%, temperature 149° C.
[7] abbreviates: mass fraction 90%, temperature 58° C.
Where [8] appears, read: mass fraction 70% prior to evaporation, temperature 150° C.
[9] abbreviates: mass fraction 80% prior to evaporation, temperature 190° C.
[10] abbreviates: in water, 13C NMR (du Penhoat et al.).

Like-named read-outs stand apart in the source and are kept apart here.

Regarding `OC[C@H]1O[C@@](CO)(O[C@H]2O[C@H](CO)[C@@H](O)[C@H](O)[C@H]2O)[C@@H](O)[C@@H]1O` [sucrose], in series [1] (setting [6]), the supersaturation was −14% and the undercooling was 37K.

In the case of `OC[C@@]1(O)OC[C@@H](O)[C@@H](O)[C@H]1O` [β-D-psicopyranose], in series [2] (in water), the “Mutarotation [α]” value is reported as “about −85 deg dm^−1 cm^3”.

Take `OC[C@H]1O[C@H](OC[C@H]2OC(O)(CO)[C@@H](O)[C@@H]2O)[C@H](O)[C@@H](O)[C@@H]1O` (stereo partly drawn) [isomaltulose]: in series [1] (setting [7]), the supersaturation is 35% and the undercooling is 62K.

For the compound `O=C(CO)C(O)C(O)C(O)CO` [allulose, D-allulose], the “time until the angle of rotation remains constant (chiral species in solution equilibrated)” value in series [3] (26.05 g crystalline allulose in 74.30 g water, DS 26 wt.-%, FIG. 1) is reported as “more than 1 hour”. Moreover, in series [1] (setting [8]), the supersaturation is listed as −27% and the undercooling is −54K. Besides, in series [1] (setting [9]), the supersaturation is −19% and the undercooling is −94K. Further, in series [4] (25° C.), the solubility is 291 g per 100 g water, the solubility in water is listed as 291 g in 100 g of water and the “solubility in water expressed as mass fraction” value was 74%. Also, in series [4] (50° C.), the solubility in water was 489 g in 100 g of water and the “solubility in water expressed as mass fraction” value was 83%. The “rate constant k of development of open-chain carbonyl-form in solution (first-order)” value in series [2] (absorbance at 280 nm after dissolution) was 4.44 ms^−1. In series [2] (in solution), the “equilibrium content of carbonyl-form” value is recorded as “about 0.2%”. Further, in series [5] (in D2O at 303.15 K), the “percent composition of anomeric forms: keto form” value is reported as 0.2%, the “percent composition of anomeric forms: α-furanose” value is given as 39%, the “percent composition of anomeric forms: α-pyranose” value is reported as 22% and the “percent composition of anomeric forms: β-furanose” value is recorded as 15%. Further, the “percent composition of anomeric forms: β-pyranose” value in series [5] (in D2O at 303.15 K) is recorded as 24%. In addition, in series [5] (setting [10]), the “equilibrium composition: α-furanose” value is 37%, the “equilibrium composition: α-pyranose” value was about 26%, the “equilibrium composition: β-furanose” value is given as about 11% and the “equilibrium composition: β-pyranose” value was about 26%.

In the case of `O=C(CO)C(O)C(O)C(O)CO` (stereo not drawn) [comparative, allulose], the angle of rotation is recorded as −33.4 ° in series [3] (time 0 min); −31.1 ° in series [3] (time 0.5 min); −29 ° in series [3] (time 1 min); −27 ° in series [3] (time 1.5 min); −25.1 ° in series [3] (time 2 min); −23.35 ° in series [3] (time 2.5 min). The angle of rotation in series [3] (time 3 min) is reported as −21.7 °; in series [3] (time 3.5 min) it was −20.13 °; in series [3] (time 4 min), −18.71 °; in series [3] (time 4.5 min), −17.36 °; in series [3] (time 5 min) it was −16.1 °; in series [3] (time 5.5 min), −14.91 °. The angle of rotation in series [3] (time 6 min) was −13.8 °; in series [3] (time 6.5 min) it was −12.78 °; in series [3] (time 7 min), −11.81 °; in series [3] (time 7.5 min) it was −10.9 °; in series [3] (time 8 min), −10.05 °; in series [3] (time 8.5 min), −9.25 °. In addition, the angle of rotation in series [3] (time 9 min) is on record as −8.51 °; in series [3] (time 9.5 min), −7.81 °; in series [3] (time 10 min), −7.18 °; in series [3] (time 10.5 min) it was −6.57 °; in series [3] (time 11 min), −6 °; in series [3] (time 11.5 min), −5.47 °. Also, the angle of rotation is −4.98 ° in series [3] (time 12 min); −4.51 ° in series [3] (time 12.5 min); −4.08 ° in series [3] (time 13 min); −3.67 ° in series [3] (time 13.5 min); −3.29 ° in series [3] (time 14 min); −2.93 ° in series [3] (time 14.5 min). The angle of rotation in series [3] (time 15 min) is recorded as −2.6 °; in series [3] (time 15.5 min), −2.29 °; in series [3] (time 16 min), −2 °; in series [3] (time 16.5 min) it was −1.72 °; in series [3] (time 17 min), −1.47 °; in series [3] (time 17.5 min), −1.23 °. Moreover, the angle of rotation is given as −1 ° in series [3] (time 18 min); −0.8 ° in series [3] (time 18.5 min); −0.6 ° in series [3] (time 19 min); −0.41 ° in series [3] (time 19.5 min); −0.24 ° in series [3] (time 20 min); −0.08 ° in series [3] (time 20.5 min). The angle of rotation in series [3] (time 21 min) was determined as 0.07 °; in series [3] (time 21.5 min) it was 0.22 °; in series [3] (time 22 min), 0.35 °; in series [3] (time 22.5 min) it was 0.47 °; in series [3] (time 23 min), 0.59 °; in series [3] (time 23.5 min), 0.7 °. Further, the angle of rotation in series [3] (time 24 min) stood at 0.8 °; in series [3] (time 24.5 min), 0.9 °; in series [3] (time 25 min), 0.99 °; in series [3] (time 25.5 min) it was 1.07 °; in series [3] (time 26 min) it was 1.15 °; in series [3] (time 26.5 min), 1.22 °. Further, the angle of rotation in series [3] (time 27 min) stood at 1.29 °; in series [3] (time 27.5 min) it was 1.36 °; in series [3] (time 28 min) it was 1.42 °; in series [3] (time 28.5 min) it was 1.48 °; in series [3] (time 29 min), 1.53 °; in series [3] (time 29.5 min), 1.58 °. The angle of rotation in series [3] (time 30 min) stood at 1.63 °; in series [3] (time 35 min), 1.96 °; in series [3] (time 40 min), 2.13 °; in series [3] (time 45 min) it was 2.22 °; in series [3] (time 50 min) it was 2.26 °; in series [3] (time 55 min) it was 2.29 °. Further, the angle of rotation in series [3] (time 60 min) is listed as 2.30 °.

Values taken from US20230312631A1, “EXTRUSION PROCESS FOR THE PREPARATION OF A SOLID ALLULOSE COMPOSITION” (SAVANNA INGREDIENTS GMBH, priority 2020, published 2023).
